Test system: human umbilical vein endothelial cells (HUVEC)
Assay: HUVEC proliferation assay (VEGF-stimulated, MTT);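 further: relative to VEGF-stimulated control minus starvation-medium baseline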
Assay type: cell-based
Settings: Library II, Y=S, crude reaction mixtures
Description: HUVEC Proliferation Assay
This assay determines the ability of a test compound to inhibit the growth factor-stimulated proliferation of human umbilical vein endothelial cells (“HUVEC”). HUVEC cells (passage 3-4, Clonetics, Corp.) were thawed into EGM2 culture medium (Clonetics Corp) in T75 flasks. Fresh EGM2 medium was added to the flasks 24 hours later. Four or five days later, cells were exposed to another culture medium (F12K medium supplemented with 10% fetal bovine serum (FBS), 60 μg/mL endothelial cell growth supplement (ECGS), and 0.1 mg/mL heparin). Exponentially-growing HUVEC cells were used in experiments thereafter. Ten to twelve thousand HUVEC cells were plated in 96-well dishes in 100 μl of rich, culture medium (described above). The cells were allowed to attach for 24 hours in this medium. The medium was then removed by aspiration and 105 μl of starvation media (F12K+1% FBS) was added to each well. After 24 hours, 15 μl of test agent dissolved in 1% DMSO in starvation medium or this vehicle alone was added into each treatment well; the final DMSO concentration was 0.1%. One hour later, 30 μl of VEGF (30 ng/mL) in starvation media was added to all wells except those containing untreated controls; the final VEGF concentration was 6 ng/mL. Cellular proliferation was quantified 72 hours later by MTT dye reduction, at which time cells were exposed for 4 hours MTT (Promega Corp.).
For screening compound library plates, one or two concentrations (one well per concentration) were employed, and the % inhibition was calculated by the following formula:
% inhibition=(control−test)÷(control−starvation)
% inhibition=(control-treated)/(control-starvation)×100

[1] = 0.5 mM (column head; text: nominal 0.5 nM)
[2] = 2 mM (column head; text: nominal 2 nM)

Compound: Nc1ccc(CCNC(=O)c2ccccc2Sc2ccc3c(/C=C/c4ccccn4)n[nH]c3c2)cc1
- % inhibition of the proliferation of HUVEC [1]: 32%
- % inhibition of the proliferation of HUVEC [2]: 31%

Compound: O=C(NCCCN1CCOCC1)c1ccccc1Sc1ccc2c(/C=C/c3ccccn3)n[nH]c2c1
- % inhibition of the proliferation of HUVEC [1]: 5%
- % inhibition of the proliferation of HUVEC [2]: 14%

Compound: O=C(NCC1CCCO1)c1ccccc1Sc1ccc2c(/C=C/c3ccccn3)n[nH]c2c1 (stereo not shown)
- % inhibition of the proliferation of HUVEC [1]: 23%
- % inhibition of the proliferation of HUVEC [2]: 44%

Compound: O=C(NCCCN1CCCC1=O)c1ccccc1Sc1ccc2c(/C=C/c3ccccn3)n[nH]c2c1
- % inhibition of the proliferation of HUVEC [1]: 25%
- % inhibition of the proliferation of HUVEC [2]: 35%

Compound: CN1CCCC1CCNC(=O)c1ccccc1Sc1ccc2c(/C=C/c3ccccn3)n[nH]c2c1 (stereo not shown)
- % inhibition of the proliferation of HUVEC [1]: 30%
- % inhibition of the proliferation of HUVEC [2]: 23%

Compound: O=C(NCCN1CCCCC1)c1ccccc1Sc1ccc2c(/C=C/c3ccccn3)n[nH]c2c1
- % inhibition of the proliferation of HUVEC [1]: 5%
- % inhibition of the proliferation of HUVEC [2]: 19%

Compound: O=C(CNC(=O)c1ccccc1Sc1ccc2c(/C=C/c3ccccn3)n[nH]c2c1)NO
- % inhibition of the proliferation of HUVEC [1]: 5%
- % inhibition of the proliferation of HUVEC [2]: 9%

Compound: O=C(O)CNC(=O)c1ccccc1Sc1ccc2c(/C=C/c3ccccn3)n[nH]c2c1
- % inhibition of the proliferation of HUVEC [1]: 8%
- % inhibition of the proliferation of HUVEC [2]: 23%

Compound: O=C(NCCS(=O)(=O)O)c1ccccc1Sc1ccc2c(/C=C/c3ccccn3)n[nH]c2c1
- % inhibition of the proliferation of HUVEC [1]: 16%
- % inhibition of the proliferation of HUVEC [2]: 21%

Compound: CCC(O)CNC(=O)c1ccccc1Sc1ccc2c(/C=C/c3ccccn3)n[nH]c2c1 (stereo not shown)
- % inhibition of the proliferation of HUVEC [1]: 13%
- % inhibition of the proliferation of HUVEC [2]: 23%

Compound: CC(C)(CO)CNC(=O)c1ccccc1Sc1ccc2c(/C=C/c3ccccn3)n[nH]c2c1
- % inhibition of the proliferation of HUVEC [1]: 8%
- % inhibition of the proliferation of HUVEC [2]: 22%

Compound: CCN1CC(NC(=O)c2ccccc2Sc2ccc3c(/C=C/c4ccccn4)n[nH]c3c2)CN1CC
- % inhibition of the proliferation of HUVEC [1]: 2%
- % inhibition of the proliferation of HUVEC [2]: −19%

Compound: CCN(CCNC(=O)c1ccccc1Sc1ccc2c(/C=C/c3ccccn3)n[nH]c2c1)c1cccc(C)c1
- % inhibition of the proliferation of HUVEC [1]: 17%
- % inhibition of the proliferation of HUVEC [2]: 1%

Compound: N=C(N)CNC(=O)c1ccccc1Sc1ccc2c(/C=C/c3ccccn3)n[nH]c2c1
- % inhibition of the proliferation of HUVEC [1]: 7%
- % inhibition of the proliferation of HUVEC [2]: −1%

Compound: O=C(NCCc1c[nH]cn1)c1ccccc1Sc1ccc2c(/C=C/c3ccccn3)n[nH]c2c1
- % inhibition of the proliferation of HUVEC [1]: 23%
- % inhibition of the proliferation of HUVEC [2]: −32%

Compound: O=C(NCS(=O)(=O)O)c1ccccc1Sc1ccc2c(/C=C/c3ccccn3)n[nH]c2c1
- % inhibition of the proliferation of HUVEC [1]: 2%
- % inhibition of the proliferation of HUVEC [2]: −3%

Compound: CN(CCCNC(=O)c1ccccc1Sc1ccc2c(/C=C/c3ccccn3)n[nH]c2c1)c1ccccc1
- % inhibition of the proliferation of HUVEC [1]: 18%
- % inhibition of the proliferation of HUVEC [2]: 25%

Compound: NS(=O)(=O)c1ccc(CNC(=O)c2ccccc2Sc2ccc3c(/C=C/c4ccccn4)n[nH]c3c2)cc1
- % inhibition of the proliferation of HUVEC [1]: 1%
- % inhibition of the proliferation of HUVEC [2]: 13%

Compound: O=C(NCCCN(CCO)CCO)c1ccccc1Sc1ccc2c(/C=C/c3ccccn3)n[nH]c2c1
- % inhibition of the proliferation of HUVEC [1]: 4%
- % inhibition of the proliferation of HUVEC [2]: 4%

Compound: O=C(NCCc1ccncc1)c1ccccc1Sc1ccc2c(/C=C/c3ccccn3)n[nH]c2c1
- % inhibition of the proliferation of HUVEC [1]: 18%
- % inhibition of the proliferation of HUVEC [2]: 22%

Compound: O=C(NO)c1ccccc1Sc1ccc2c(/C=C/c3ccccn3)n[nH]c2c1
- % inhibition of the proliferation of HUVEC [1]: 7%
- % inhibition of the proliferation of HUVEC [2]: 25%

Compound: CNNC(=O)c1ccccc1Sc1ccc2c(/C=C/c3ccccn3)n[nH]c2c1
- % inhibition of the proliferation of HUVEC [1]: 13%
- % inhibition of the proliferation of HUVEC [2]: 31%

Compound: COCCCNC(=O)c1ccccc1Sc1ccc2c(/C=C/c3ccccn3)n[nH]c2c1
- % inhibition of the proliferation of HUVEC [1]: 26%
- % inhibition of the proliferation of HUVEC [2]: 31%

Compound: Cc1cc(NC(=O)c2ccccc2Sc2ccc3c(/C=C/c4ccccn4)n[nH]c3c2)on1
- % inhibition of the proliferation of HUVEC [1]: 26%
- % inhibition of the proliferation of HUVEC [2]: 31%

Compound: Cc1cc(NC(=O)c2ccccc2Sc2ccc3c(/C=C/c4ccccn4)n[nH]c3c2)no1
- % inhibition of the proliferation of HUVEC [1]: 28%
- % inhibition of the proliferation of HUVEC [2]: 14%

Compound: Nc1nc(NC(=O)c2ccccc2Sc2ccc3c(/C=C/c4ccccn4)n[nH]c3c2)n[nH]1
- % inhibition of the proliferation of HUVEC [1]: −6%
- % inhibition of the proliferation of HUVEC [2]: 41%

Compound: O=C(NC1CCCCC1)c1ccccc1Sc1ccc2c(/C=C/c3ccccn3)n[nH]c2c1
- % inhibition of the proliferation of HUVEC [1]: 12%
- % inhibition of the proliferation of HUVEC [2]: 76%

Compound: O=C(Nc1nncs1)c1ccccc1Sc1ccc2c(/C=C/c3ccccn3)n[nH]c2c1
- % inhibition of the proliferation of HUVEC [1]: 44%
- % inhibition of the proliferation of HUVEC [2]: 28%

Compound: CC(C)CC(C)NC(=O)c1ccccc1Sc1ccc2c(/C=C/c3ccccn3)n[nH]c2c1 (stereo not shown)
- % inhibition of the proliferation of HUVEC [1]: 55%
- % inhibition of the proliferation of HUVEC [2]: 50%

Compound: CCCCCCNC(=O)c1ccccc1Sc1ccc2c(/C=C/c3ccccn3)n[nH]c2c1
- % inhibition of the proliferation of HUVEC [1]: 21%
- % inhibition of the proliferation of HUVEC [2]: 90%

Compound: O=C(Nc1nnn[nH]1)c1ccccc1Sc1ccc2c(/C=C/c3ccccn3)n[nH]c2c1
- % inhibition of the proliferation of HUVEC [1]: 21%
- % inhibition of the proliferation of HUVEC [2]: 64%

Compound: O=C(NCC1OCCO1)c1ccccc1Sc1ccc2c(/C=C/c3ccccn3)n[nH]c2c1
- % inhibition of the proliferation of HUVEC [1]: 35%
- % inhibition of the proliferation of HUVEC [2]: 63%

Compound: CC(C)C(CO)NC(=O)c1ccccc1Sc1ccc2c(/C=C/c3ccccn3)n[nH]c2c1 (stereo not shown)
- % inhibition of the proliferation of HUVEC [1]: 21%
- % inhibition of the proliferation of HUVEC [2]: −5%

Compound: CCC(COC)NC(=O)c1ccccc1Sc1ccc2c(/C=C/c3ccccn3)n[nH]c2c1 (stereo not shown)
- % inhibition of the proliferation of HUVEC [1]: 1%
- % inhibition of the proliferation of HUVEC [2]: 65%

Compound: CCOCCCNC(=O)c1ccccc1Sc1ccc2c(/C=C/c3ccccn3)n[nH]c2c1
- % inhibition of the proliferation of HUVEC [1]: 44%
- % inhibition of the proliferation of HUVEC [2]: 97%

Compound: CCCC(CO)NC(=O)c1ccccc1Sc1ccc2c(/C=C/c3ccccn3)n[nH]c2c1 (stereo not shown)
- % inhibition of the proliferation of HUVEC [1]: 44%
- % inhibition of the proliferation of HUVEC [2]: 40%

Compound: COC(CNC(=O)c1ccccc1Sc1ccc2c(/C=C/c3ccccn3)n[nH]c2c1)OC
- % inhibition of the proliferation of HUVEC [1]: 47%
- % inhibition of the proliferation of HUVEC [2]: 89%

Compound: CSCCCNC(=O)c1ccccc1Sc1ccc2c(/C=C/c3ccccn3)n[nH]c2c1
- % inhibition of the proliferation of HUVEC [1]: 44%
- % inhibition of the proliferation of HUVEC [2]: 100%
